molecular target: ROCK kinase; test: In vitro ROCK kinase inhibition activity evaluation (33P-ATP filter-binding); assay type: biochemical; set-up: key to ROCK inhibition activity: 1 μM ≦ + < 5 μM; 0.1 μM ≦ ++ < 1 μM; +++ < 0.1 μM; −− N/A; conditions: 1 nM ROCK kinase, 20 μM Long S6 Kinase substrate peptide, 2 h room temperature
Procedure: Biological Activity Experiment: In Vitro ROCK Kinase Inhibition Activity Evaluation
Experimental Objective: Test ROCK Inhibition IC50 Value of Invented Compounds
Buffer solution: 20 mM Hepes (pH 7.5), 10 mM MgCl2, 1 mM EGTA, 0.02% Brij35, 0.02 mg/ml BSA, 0.1 mM Na3VO4, 2 mM DTT, 1% DMSO
To a freshly prepared buffer solution was added ROCK substrate Long S6 Kinase substrate peptide, with concentration at 20 μM. 1 nM ROCK kinase was then added, and well stirred. A series of DMSO solution (starting from 10 μM, dilution factor 3) of testing article was added using Echo550. The mixture was incubated for 20 min at room temperature, then was added ^33P-ATP (radioactive intensity 10 μCi/μL) to initiate reaction and further reacted for 2 h at room temperature. The mixture was filtered through P81 ion exchange paper (Whatman #3698-915), and washed by 0.75% phosphoric acid. The intensity of radiation was measured by Filter-Binding method.
The inhibition activity of the testing articles were measured by comparing the residue kinase activity to blank substrate (pure DMSO). Using Prism software ((GraphPad Software, San Diego Calif., USA) to calculate IC50 and curve.

Row | SMILES | IC50 [nM] | ROCK inhibition activity
1 | O=S(=O)(c1cccc2cnccc12)N1CC[C@@H]2NCC[C@@H]21 (stereo in doubt) [Example 1, 5-((hexahydropyrrolo[3,2-b]pyrrol-1(2H)-yl)sulfonyl)isoquinoline] | 100 to 1000 | 
2 | O=S(=O)(c1cccc2cnccc12)N1C[C@@H]2CCN[C@@H]2C1 (stereo in doubt) [Example 2, 5-((hexahydropyrrolo[3,4-b]pyrrol-5(1H)-yl)sulfonyl)isoquinoline] | 100 to 1000 | 
3 | O=S(=O)(c1cccc2cnccc12)N1C[C@H]2CCCN[C@H]2C1 (stereo in doubt) [Example 3, 5-((hexahydro-1H-pyrrolo[3,4-b]pyridin-6(2H)-yl)sulfonyl)isoquinoline] | 100 to 1000 | 
4 | O=S(=O)(c1cccc2cncc(Cl)c12)N1CC[C@@H]2NCC[C@@H]21 (stereo in doubt) [Example 16, 4-chloro-5-((hexahydropyrrolo[3,2-b]pyrrol-1(2H)-yl)sulfonyl)isoquinoline] | 100 to 1000 | 
5 | O=S(=O)(c1cccc2cncc(Cl)c12)N1C[C@@H]2CCN[C@@H]2C1 (stereo in doubt) [Example 17, 4-chloro-5-((hexahydropyrrolo[3,4-b]pyrrol-5 (1H)-yl)sulfonyl)isoquinoline] | 100 to 1000 | 
6 | O=S(=O)(c1cccc2cncc(Cl)c12)N1C[C@H]2CCCN[C@H]2C1 (stereo in doubt) [Example 18, 4-chloro-5-((hexahydro-1H-pyrrolo[3,4-b]pyridin-6(2H)-yl)sulfonyl)isoquinoline] | 100 to 1000 | 
7 | O=S(=O)(c1cccc2cncc(Cl)c12)N1C[C@H]2CN[C@H]2C1 (stereo in doubt) [Example 19, 5-(3,6-diazabicyclo[3.2.0]heptan-3-ylsulfonyl)-4-chloroisoquinoline] | < 100 | 
8 | O=S(=O)(c1cccc2cncc(F)c12)N1CC[C@@H]2NCC[C@@H]21 (stereo in doubt) [Example 24, 4-fluoro-5-((hexahydropyrrolo[3,2-b]pyrrol-1(2H)-yl)sulfonyl)isoquinoline] | 1000 to 5000 | 
9 | O=S(=O)(c1cccc2cncc(F)c12)N1C[C@H]2CCCN[C@H]2C1 (stereo in doubt) [Example 26, 4-fluoro-5-((hexahydro-1H-pyrrolo[3,4-b]pyridin-6(2H)-yl)sulfonyl)isoquinoline] | 100 to 1000 | 
10 | O=S(=O)(c1cccc2cncc(F)c12)N1C[C@H]2CN[C@H]2C1 (stereo in doubt) [Example 27, 5-(3,6-diazabicyclo[3.2.0]heptan-3-ylsulfonyl)-4-fluoroisoquinoline] | 100 to 1000 | 
11 | O=S(=O)(c1cccc2cncc(C(F)F)c12)N1CC[C@@H]2NCC[C@@H]21 (stereo in doubt) [Example 31, 4-(difluoromethyl)-5-((hexahydropyrrolo[3,2-b]pyrrol-1(2H)-yl)sulfonyl)isoquinoline] |  | −−
12 | O=S(=O)(c1cccc2cncc(C(F)F)c12)N1C[C@@H]2CCN[C@@H]2C1 (stereo in doubt) [Example 32, 4-(difluoromethyl)-5-((hexahydropyrrolo[3,4-b]pyrrol-5(1H)-yl)sulfonyl)isoquinoline] |  | −−
13 | O=S(=O)(c1cccc2cncc(C(F)F)c12)N1C[C@H]2CCCN[C@H]2C1 (stereo in doubt) [Example 33, 4-(difluoromethyl)-5-((hexahydro-1H-pyrrolo[3,4-b]pyridin-6(2H)-yl)sulfonyl)isoquinoline] |  | −−
14 | O=S(=O)(c1cccc2cncc(C(F)F)c12)N1C[C@H]2CN[C@H]2C1 (stereo in doubt) [Example 34, 5-(3,6-diazabicyclo[3.2.0]heptan-3-ylsulfonyl)-4-(difluoromethyl)isoquinoline] |  | −−
15 | Cc1cncc2cccc(S(=O)(=O)N3CC[C@@H]4NCC[C@@H]43)c12 (stereo in doubt) [Example 37, 5-((hexahydropyrrolo[3,2-b]pyrrol-1(2H)-yl)sulfonyl)-4-methylisoquinoline] | 100 to 1000 | 
16 | Cc1cnc(O)c2cccc(S(=O)(=O)N3C[C@@H]4CCN[C@@H]4C3)c12 (stereo in doubt) [Example 39, 5-((hexahydropyrrolo[3,4-b]pyrrol-5(1H)-yl)sulfonyl)-4-methylisoquinolin-1-ol] | 100 to 1000 | 
17 | Cc1cncc2cccc(S(=O)(=O)N3C[C@H]4CCCN[C@H]4C3)c12 (stereo in doubt) [Example 40, 5-((hexahydro-1H-pyrrolo[3,4-b]pyridin-6(2H)-yl)sulfonyl)-4-methylisoquinoline] | < 100 | 
18 | Cc1cncc2cccc(S(=O)(=O)N3C[C@H]4CN[C@H]4C3)c12 (stereo in doubt) [Example 41, 5-(3,6-diazabicyclo[3.2.0]heptan-3-ylsulfonyl)-4-methylisoquinoline] | < 100 | 
19 | O=S(=O)(c1cccc2cncc(C(F)(F)F)c12)N1C[C@@H]2CCN[C@@H]2C1 (stereo in doubt) [Example 46, 5-((hexahydropyrrolo[3,4-b]pyrrol-5 (1H)-yl)sulfonyl)-4-(trifluoromethyl)isoquinoline] |  | −−
20 | COc1cncc2cccc(S(=O)(=O)N3CC[C@@H]4NCC[C@@H]43)c12 (stereo in doubt) [Example 47, 5-((hexahydropyrrolo[3,2-b]pyrrol-1(2H)-yl)sulfonyl)-4-methoxyisoquinoline] | 1000 to 5000 | 

Row | SMILES | IC50 [nM] | ROCK inhibition activity
21 | COc1cncc2cccc(S(=O)(=O)N3C[C@@H]4CCN[C@@H]4C3)c12 (stereo in doubt) [Example 48, 5-((hexahydropyrrolo[3,4-b]pyrrol-5 (1H)-yl)sulfonyl)-4-methoxyisoquinoline] | 1000 to 5000 | 
22 | COc1cncc2cccc(S(=O)(=O)N3C[C@H]4CCCN[C@H]4C3)c12 (stereo in doubt) [Example 49, 5-((hexahydro-1H-pyrrolo[3,4-b]pyridin-6(2H)-yl)sulfonyl)-4-methoxyisoquinoline] | 1000 to 5000 | 
23 | COc1cncc2cccc(S(=O)(=O)N3C[C@H]4CN[C@H]4C3)c12 (stereo in doubt) [Example 50, 5-(3,6-diazabicyclo[3.2.0]heptan-3-ylsulfonyl)-4-methoxyisoquinoline] | 1000 to 5000 | 
24 | O=S(=O)(c1cccc2cnccc12)N1CCC2NCCCC2C1 (stereo not drawn) [Example 5, 6-(isoquinolin-5-ylsulfonyl)decahydro-1,6-naphthyridine] | 100 to 1000 | 
25 | O=S(=O)(c1cccc2cnccc12)N1CCC2NCCCC21 (stereo not drawn) [Example 6, 5-((octahydro-1H-pyrrolo[3,2-b]pyridin-1-yl)sulfonyl)isoquinoline] | 100 to 1000 | 
26 | O=S(=O)(c1cccc2cnccc12)N1C[C@H]2CNC[C@H]2C1 [Example 7, 5-((hexahydropyrrolo[3,4-c]pyrrol-2(1H)-yl)sulfonyl)isoquinoline] | 100 to 1000 | 
27 | O=S(=O)(c1cccc2cnccc12)N1CC2CCNCC2C1 (stereo not drawn) [Example 8, 5-((hexahydro-1H-pyrrolo[3,4-c]pyridin-2(3H)-yl)sulfonyl)isoquinoline] | 100 to 1000 | 
28 | O=S(=O)(c1cccc2cnccc12)N1CCC2CCNC2C1 (stereo not drawn) [Example 9, 5-((hexahydro-1H-pyrrolo[2,3-c]pyridin-6(2H)-yl)sulfonyl) isoquinoline] | 1000 to 5000 | 
29 | NC1CN(S(=O)(=O)c2cccc3cnccc23)CC12CC2 (stereo not drawn) [Example 10, 5-(isoquinolin-5-ylsulfonyl)-5-azaspiro[2.4]heptan-7-amine] |  | −−
30 | CCNC1CN(S(=O)(=O)c2cccc3cnccc23)CC12CC2 (stereo not drawn) [Example 11, N-ethyl-5-(isoquinolin-5-ylsulfonyl)-5-azaspiro[2.4]heptan-7-amine] |  | −−
31 | NC1CCN(S(=O)(=O)c2cccc3cnccc23)C12CC2 (stereo not drawn) [Example 13, 4-(isoquinolin-5-ylsulfonyl)-4-azaspiro[2.4]heptan-7-amine] | < 100 | 
32 | O=S(=O)(c1cccc2cnccc12)N1CCC2NCCCCC21 (stereo not drawn) [Example 14, 1-(isoquinolin-5-ylsulfonyl)decahydropyrrolo[3,2-b]azepine] | 100 to 1000 | 
33 | O=S(=O)(c1cccc2cnccc12)N1CCC2CNCC2C1 (stereo not drawn) [Example 15, 5-((hexahydro-1H-pyrrolo[3,4-c]pyridin-5(6H)-yl)sulfonyl)isoquinoline] | 100 to 1000 | 
34 | O=S(=O)(c1cccc2cncc(Cl)c12)N1CCC2NCCCC2C1 (stereo not drawn) [Example 20, 6-((4-chloroisoquinolin-5-yl)sulfonyl)decahydro-1,6-naphthyridine] | 100 to 1000 | 
35 | O=S(=O)(c1cccc2cncc(Cl)c12)N1CCC2NCCCC21 (stereo not drawn) [Example 21, 4-chloro-5-((octahydro-1H-pyrrolo[3,2-b]pyridin-1-yl)sulfonyl)isoquinoline] | 100 to 1000 | 
36 | O=S(=O)(c1cccc2cncc(Cl)c12)N1C[C@H]2CNC[C@H]2C1 [Example 22, 4-chloro-5-((hexahydropyrrolo[3,4-c]pyrrol-2(1H)-yl)sulfonyl)isoquinoline] | 100 to 1000 | 
37 | O=S(=O)(c1cccc2cncc(Cl)c12)N1CC2CCNCC2C1 (stereo not drawn) [Example 23, 4-chloro-5-((hexahydro-1H-pyrrolo[3,4-c]pyridin-2(3H)-yl)sulfonyl)isoquinoline] | 100 to 1000 | 
38 | O=S(=O)(c1cccc2cncc(F)c12)N1C[C@@H]2CCN[C@@H]2C1 [Example 25, 4-fluoro-5-((hexahydropyrrolo[3,4-b]pyrrol-5(1H)-yl)sulfonyl)isoquinoline] | 100 to 1000 | 
39 | O=S(=O)(c1cccc2cncc(F)c12)N1CCC2NCCCC21 (stereo not drawn) [Example 28, 4-fluoro-5-((octahydro-1H-pyrrolo[3,2-b]pyridin-1-yl)sulfonyl)isoquinoline] | 100 to 1000 | 

— patent US9856264B2, “Isoquinolinesulfonyl derivative as RHO kinase inhibitor” (MEDSHINE DISCOVERY INC., priority 2014, dated 2018)
